# In patent publication US8088815B2, “Spiroindolinone pyrrolidines” (Hoffman-La Roche Inc., priority 2009, dated 2012):
# Molecular target: interaction between p53 and MDM2 proteins (Homo sapiens, UniProt Q00987)
# Test: HTRF assay of inhibition of the p53-MDM2 interaction (GST-MDM2 / biotinylated p53 peptide)
# Type: binding
# Settings: recombinant GST-tagged MDM2 and biotinylated p53 peptide, bsa:0.02%
# Sequence of interaction between p53 and MDM2 proteins (Q00987 whole entry): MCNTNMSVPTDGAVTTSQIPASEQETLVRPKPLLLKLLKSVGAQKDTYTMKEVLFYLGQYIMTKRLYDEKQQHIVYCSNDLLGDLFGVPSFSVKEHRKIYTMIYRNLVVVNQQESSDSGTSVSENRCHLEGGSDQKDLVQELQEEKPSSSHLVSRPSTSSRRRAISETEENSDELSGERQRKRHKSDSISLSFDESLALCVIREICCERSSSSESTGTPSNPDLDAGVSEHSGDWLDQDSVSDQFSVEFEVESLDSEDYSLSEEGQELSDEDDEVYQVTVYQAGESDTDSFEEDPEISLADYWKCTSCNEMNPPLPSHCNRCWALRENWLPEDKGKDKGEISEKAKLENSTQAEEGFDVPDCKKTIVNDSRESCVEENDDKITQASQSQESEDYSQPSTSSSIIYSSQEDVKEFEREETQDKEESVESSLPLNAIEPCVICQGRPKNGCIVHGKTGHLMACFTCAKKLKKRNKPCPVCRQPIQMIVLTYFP
row,SMILES,IC50 [nM]
1,"Cn1c(NC(=O)[C@@H]2N[C@@H](CC(C)(C)C)[C@@]3(C(=O)Nc4cc(Cl)ccc43)[C@H]2c2cccc(Cl)c2F)ccc1C(=O)OC(C)(C)C (racemic) [Example 194, rac-5-{[(2′S,3′R,4′S,5′R)-6-chloro-4′-(3-chloro-2-fluoro-phenyl)-2′-(2,2-dimethyl-propyl)-2-oxo-1,2-dihydro-spiro[indole-3,3′-pyrrolidine]-5′-carbonyl]amino}-1-methyl-1H-pyrrole-2-carboxylic acid tert-butyl ester]",55
2,"Cn1cccc1NC(=O)[C@@H]1N[C@@H](CC(C)(C)C)[C@@]2(C(=O)Nc3cc(Cl)ccc32)[C@H]1c1cccc(Cl)c1F (racemic) [Example 195, rac-(2′S,3′R,4′S,5′R)-6-chloro-4′-(3-chloro-2-fluoro-phenyl)-2′-(2,2-dimethyl-propyl)-2-oxo-1,2-dihydro-spiro[indole-3,3′-pyrrolidine]-5′-carboxylic acid (1-methyl-1H-pyrrol-2-yl)-amide]",15
3,"CCOC(=O)c1csc(NC(=O)[C@@H]2N[C@@H](CC(C)(C)C)[C@@]3(C(=O)Nc4cc(Cl)ccc43)[C@H]2c2cccc(Cl)c2F)n1 (racemic) [Example 196, rac-2-{[(2′S,3′R,4′S,5′R)-6-chloro-4′-(3-chloro-2-fluoro-phenyl)-2′-(2,2-dimethyl-propyl)-2-oxo-1,2-dihydro-spiro[indole-3,3′-pyrrolidine]-5′-carbonyl]-amino}-thiazole-4-carboxylic acid ethyl ester]",50
4,"CC(C)(C)C[C@@H]1N[C@@H](C(=O)Nc2nc(C(=O)O)cs2)[C@H](c2cccc(Cl)c2F)[C@]12C(=O)Nc1cc(Cl)ccc12 (racemic) [Example 197, rac-2-{[(2′S,3′R,4′S,5′R)-6-chloro-4′-(3-chloro-2-fluoro-phenyl)-2′-(2,2-dimethyl-propyl)-2-oxo-1,2-dihydro-spiro[indole-3,3′-pyrrolidine]-5′-carbonyl]amino}-thiazole-4-carboxylic acid]",51
5,"CC(C)(C)C[C@@H]1N[C@@H](C(=O)Nc2nc(C(N)=O)cs2)[C@H](c2cccc(Cl)c2F)[C@]12C(=O)Nc1cc(Cl)ccc12 (racemic) [Example 198, rac-(2′S,3′R,4′S,5′R)-6-chloro-4′-(3-chloro-2-fluoro-phenyl)-2′-(2,2-dimethyl-propyl)-2-oxo-1,2-dihydro-spiro[indole-3,3′-pyrrolidine]-5′-carboxylic acid (4-carbamoyl-thiazol-2-yl)-amide]",12
6,"CC(C)(C)C[C@@H]1N[C@@H](C(=O)Nc2ccc(OCC(=O)O)cc2)[C@H](c2cccc(Cl)c2F)[C@]12C(=O)Nc1cc(Cl)ccc12 (racemic) [Example 206, rac-(4-{[(2′S,3′R,4′S,5′R)-6-chloro-4′-(3-chloro-2-fluoro-phenyl)-2′-(2,2-dimethyl-propyl)-2-oxo-1,2-dihydro-spiro[indole-3,3′-pyrrolidine]-5′-carbonyl]amino}-phenoxy)-acetic acid]",6
7,"CC(C)(C)C[C@@H]1N[C@@H](C(=O)Nc2ccc(CCC(=O)O)cc2)[C@H](c2cccc(Cl)c2F)[C@]12C(=O)Nc1cc(Cl)ccc12 (racemic) [Example 209, rac-3-(4-{[(2′S,3′R,4′S,5′R)-6-chloro-4′-(3-chloro-2-fluoro-phenyl)-2′-(2,2-dimethyl-propyl)-2-oxo-1,2-dihydro-spiro[indole-3,3′-pyrrolidine]-5′-carbonyl]-amino}-phenyl)-propionic acid]",4
8,"CC(C)(C)C[C@@H]1N[C@@H](C(=O)Nc2ccc(OCC(N)=O)cc2)[C@H](c2cccc(Cl)c2F)[C@]12C(=O)Nc1cc(Cl)ccc12 (racemic) [Example 210, rac-(2′S,3′R,4′S,5′R)-6-chloro-4′-(3-chloro-2-fluoro-phenyl)-2′-(2,2-dimethyl-propyl)-2-oxo-1,2-dihydro-spiro[indole-3,3′-pyrrolidine]-5′-carboxylic acid (4-carbamoylmethoxy-phenyl)-amide]",15
9,"CC(C)(C)C[C@@H]1N[C@@H](C(=O)Nc2ccc(CCC(N)=O)cc2)[C@H](c2cccc(Cl)c2F)[C@]12C(=O)Nc1cc(Cl)ccc12 (racemic) [Example 211, rac-(2′S,3′R,4′S,5′R)-6-chloro-4′-(3-chloro-2-fluoro-phenyl)-2′-(2,2-dimethyl-propyl)-2-oxo-1,2-dihydro-spiro[indole-3,3′-pyrrolidine]-5′-carboxylic acid [4-(2-carbamoyl-ethyl)-phenyl]-amide]",15
10,"COC(=O)c1cc2cc(NC(=O)[C@@H]3N[C@@H](CC(C)(C)C)[C@@]4(C(=O)Nc5cc(Cl)ccc54)[C@H]3c3cccc(Cl)c3F)ccc2s1 (racemic) [Example 212, rac-5-{[(2′S,3′R,4′S,5′R)-6-chloro-4′-(3-chloro-2-fluoro-phenyl)-2′-(2,2-dimethyl-propyl)-2-oxo-1,2-dihydro-spiro[indole-3,3′-pyrrolidine]-5′-carbonyl]amino}-benzo[b]thiophene-2-carboxylic acid methyl ester]",18
11,"CC(C)(C)C[C@@H]1N[C@@H](C(=O)Nc2ccc3sc(C(=O)O)cc3c2)[C@H](c2cccc(Cl)c2F)[C@]12C(=O)Nc1cc(Cl)ccc12 (racemic) [Example 213, rac-5-{[(2′S,3′R,4′S,5′R)-6-chloro-4′-(3-chloro-2-fluoro-phenyl)-2′-(2,2-dimethyl-propyl)-2-oxo-1,2-dihydro-spiro[indole-3,3′-pyrrolidine]-5′-carbonyl]amino}-benzo[b]thiophene-2-carboxylic acid]",14
12,"COC(=O)c1cc(OC)c(NC(=O)[C@@H]2N[C@@H](CC(C)(C)C)[C@@]3(C(=O)Nc4cc(Cl)ccc43)[C@H]2c2cccc(Cl)c2F)cc1F (racemic) [Example 214, rac-4-{[(2′S,3′R,4′S,5′R)-6-chloro-4′-(3-chloro-2-fluoro-phenyl)-2′-(2,2-dimethyl-propyl)-2-oxo-1,2-dihydro-spiro[indole-3,3′-pyrrolidine]-5′-carbonyl]amino}-2-fluoro-5-methoxy-benzoic acid methyl ester]",20
13,"COc1cc(C(=O)O)c(F)cc1NC(=O)[C@@H]1N[C@@H](CC(C)(C)C)[C@@]2(C(=O)Nc3cc(Cl)ccc32)[C@H]1c1cccc(Cl)c1F (racemic) [Example 215, rac-4-{[(2′S,3′R,4′S,5′R)-6-chloro-4′-(3-chloro-2-fluoro-phenyl)-2′-(2,2-dimethyl-propyl)-2-oxo-1,2-dihydro-spiro[indole-3,3′-pyrrolidine]-5′-carbonyl]-amino}-2-fluoro-5-methoxy-benzoic acid]",11
14,"CCOC(=O)CNc1ccc(NC(=O)[C@@H]2N[C@@H](CC(C)(C)C)[C@@]3(C(=O)Nc4cc(Cl)ccc43)[C@H]2c2cccc(Cl)c2F)cc1 (racemic) [Example 217, rac-(4-{[(2′S,3′R,4′S,5′R)-6-chloro-4′-(3-chloro-2-fluoro-phenyl)-2′-(2,2-dimethyl-propyl)-2-oxo-1,2-dihydro-spiro[indole-3,3′-pyrrolidine]-5′-carbonyl]-amino}-phenylamino)-acetic acid ethyl ester]",13
15,"CC(C)(C)C[C@@H]1N[C@@H](C(=O)Nc2ccc(NCC(=O)O)cc2)[C@H](c2cccc(Cl)c2F)[C@]12C(=O)Nc1cc(Cl)ccc12 (racemic) [Example 218, rac-(4-{[(2′S,3′R,4′S,5′R)-6-chloro-4′-(3-chloro-2-fluoro-phenyl)-2′-(2,2-dimethyl-propyl)-2-oxo-1,2-dihydro-spiro[indole-3,3′-pyrrolidine]-5′-carbonyl]amino}-phenylamino)-acetic acid]",16
